Kinase still bound, per cent of control data for 7 compounds are collected here from the kinase profiling compilation of Christmann-Franck et al. (2016).

What all share (assay): KINOMEscan competition binding
Common to all, as to conditions: compound 10.0 µM

Experiment [1] concerns ABL1 (human), P00519 [M351T].
The subject of experiment [2] is EGFR (human), P00533 [P753S; 747-752 del].
Experiment [3] deals with EIF2AK4 KD2 (human), Q9P2K8 [S808G].
The test system of experiment [4] is KIT (human), P10721 [V559D/T670I].
Experiment [5] concerns ABL1 (human), P00519 [Q252H].
Experiment [6] deals with FLT3 (human), P36888 [N841I].
The test system of experiment [7] is EGFR (human), P00533 [746-750 del].
Experiment [8] relates to EGFR (human), P00533 [G719S].
Experiment [9] concerns KIT (human), P10721 [V559D].
For experiment [10], the system named is EGFR (human), P00533 [L861Q].
In experiment [11] the test system is ABL1 (human), P00519 [E255K].
The subject of experiment [12] is ABL1 (human), P00519 [T315I].
The subject of experiment [13] is PIK3CA (human), P42336 [E545K].
For experiment [14], the system named is FLT3 (human), P36888 [ITD].
Experiment [15] concerns FLT3 (human), P36888 [K663Q].
The subject of experiment [16] is KIT (human), P10721 [D816V].
Experiment [17] concerns PIK3CA (human), P42336 [C420R].
The subject of experiment [18] is PIK3CA (human), P42336 [H1047Y].
The subject of experiment [19] is PIK3CA (human), P42336 [Q546K].
Experiment [20] relates to PIK3CA (human), P42336 [E545A].
Chain of PIK3CA (human), P42336 [E545A] (P42336 whole entry E545A, looked up): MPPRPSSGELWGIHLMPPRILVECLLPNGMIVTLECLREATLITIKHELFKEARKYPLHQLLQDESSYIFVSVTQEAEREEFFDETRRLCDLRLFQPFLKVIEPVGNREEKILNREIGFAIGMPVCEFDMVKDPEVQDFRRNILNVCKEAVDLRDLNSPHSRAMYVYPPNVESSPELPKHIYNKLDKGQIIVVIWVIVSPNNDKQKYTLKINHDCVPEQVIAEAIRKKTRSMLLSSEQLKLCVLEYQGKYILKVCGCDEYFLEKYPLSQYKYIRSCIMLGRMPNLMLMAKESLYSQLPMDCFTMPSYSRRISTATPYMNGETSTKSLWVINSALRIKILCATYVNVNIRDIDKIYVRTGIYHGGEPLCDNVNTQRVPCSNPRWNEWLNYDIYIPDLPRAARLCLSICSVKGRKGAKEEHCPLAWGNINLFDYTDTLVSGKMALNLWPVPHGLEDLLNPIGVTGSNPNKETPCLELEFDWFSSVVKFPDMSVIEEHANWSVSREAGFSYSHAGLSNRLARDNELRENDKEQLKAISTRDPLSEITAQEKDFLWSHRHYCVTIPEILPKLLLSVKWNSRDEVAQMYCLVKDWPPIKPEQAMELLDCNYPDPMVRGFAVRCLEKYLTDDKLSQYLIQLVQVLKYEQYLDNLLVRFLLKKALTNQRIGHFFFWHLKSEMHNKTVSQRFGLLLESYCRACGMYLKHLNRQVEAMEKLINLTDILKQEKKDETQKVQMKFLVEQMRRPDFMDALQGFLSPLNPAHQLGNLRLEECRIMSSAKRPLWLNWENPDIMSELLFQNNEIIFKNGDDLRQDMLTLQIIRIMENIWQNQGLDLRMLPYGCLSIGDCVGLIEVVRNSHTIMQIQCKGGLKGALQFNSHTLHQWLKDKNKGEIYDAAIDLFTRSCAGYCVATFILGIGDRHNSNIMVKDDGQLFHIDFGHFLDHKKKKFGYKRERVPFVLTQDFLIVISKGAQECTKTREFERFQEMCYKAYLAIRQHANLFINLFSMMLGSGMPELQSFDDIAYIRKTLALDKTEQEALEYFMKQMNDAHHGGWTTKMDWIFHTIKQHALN

Chain of KIT (human), P10721 [D816V] (P10721 whole entry D816V, looked up): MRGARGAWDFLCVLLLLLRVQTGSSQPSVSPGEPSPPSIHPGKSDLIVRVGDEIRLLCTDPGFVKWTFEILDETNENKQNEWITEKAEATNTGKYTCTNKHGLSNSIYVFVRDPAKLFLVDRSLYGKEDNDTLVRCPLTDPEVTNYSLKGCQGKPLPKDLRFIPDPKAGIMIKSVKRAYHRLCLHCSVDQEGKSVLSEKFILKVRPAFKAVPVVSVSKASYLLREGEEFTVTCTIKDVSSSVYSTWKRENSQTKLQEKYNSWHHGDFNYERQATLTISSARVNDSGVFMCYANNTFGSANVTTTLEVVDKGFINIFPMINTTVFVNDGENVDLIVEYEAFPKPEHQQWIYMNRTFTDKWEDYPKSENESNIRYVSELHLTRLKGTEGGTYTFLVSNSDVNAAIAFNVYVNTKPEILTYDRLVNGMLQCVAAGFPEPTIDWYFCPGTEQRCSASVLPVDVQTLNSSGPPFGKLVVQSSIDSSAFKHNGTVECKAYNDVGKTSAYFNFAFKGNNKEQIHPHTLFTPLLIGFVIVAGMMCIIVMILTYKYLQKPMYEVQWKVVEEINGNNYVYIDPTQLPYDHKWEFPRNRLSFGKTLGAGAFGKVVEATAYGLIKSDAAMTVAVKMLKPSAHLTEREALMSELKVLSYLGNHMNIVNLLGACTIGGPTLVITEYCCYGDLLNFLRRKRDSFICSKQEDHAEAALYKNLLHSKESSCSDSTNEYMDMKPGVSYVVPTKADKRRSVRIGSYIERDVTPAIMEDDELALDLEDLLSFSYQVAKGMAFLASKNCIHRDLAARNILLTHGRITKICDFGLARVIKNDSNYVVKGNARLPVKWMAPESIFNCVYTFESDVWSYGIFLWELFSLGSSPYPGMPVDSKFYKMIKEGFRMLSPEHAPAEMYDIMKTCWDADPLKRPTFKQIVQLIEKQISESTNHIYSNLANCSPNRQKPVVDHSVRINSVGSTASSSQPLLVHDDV
Chain of PIK3CA (human), P42336 [H1047Y] (P42336 whole entry H1047Y, looked up): as the sequence (P42336 whole entry E545A, looked up) above, with A545E, H1047Y counted along it
Chain of PIK3CA (human), P42336 [C420R] (P42336 whole entry C420R, looked up): as the sequence (P42336 whole entry E545A, looked up) above, with C420R, A545E counted along it
Chain of PIK3CA (human), P42336 [E545K] (P42336 whole entry E545K, looked up): as the sequence (P42336 whole entry E545A, looked up) above, with A545K counted along it
Chain of KIT (human), P10721 [V559D] (P10721 whole entry V559D, looked up): as the sequence (P10721 whole entry D816V, looked up) above, with V559D, V816D counted along it
Chain of KIT (human), P10721 [V559D/T670I] (P10721 whole entry V559D/T670I, looked up): as the sequence (P10721 whole entry D816V, looked up) above, with V559D, T670I, V816D counted along it
Chain of PIK3CA (human), P42336 [Q546K] (P42336 whole entry Q546K, looked up): as the sequence (P42336 whole entry E545A, looked up) above, with A545E, Q546K counted along it
Chain of EIF2AK4 KD2 (human), Q9P2K8 [S808G] (Q9P2K8 whole entry S808G, looked up): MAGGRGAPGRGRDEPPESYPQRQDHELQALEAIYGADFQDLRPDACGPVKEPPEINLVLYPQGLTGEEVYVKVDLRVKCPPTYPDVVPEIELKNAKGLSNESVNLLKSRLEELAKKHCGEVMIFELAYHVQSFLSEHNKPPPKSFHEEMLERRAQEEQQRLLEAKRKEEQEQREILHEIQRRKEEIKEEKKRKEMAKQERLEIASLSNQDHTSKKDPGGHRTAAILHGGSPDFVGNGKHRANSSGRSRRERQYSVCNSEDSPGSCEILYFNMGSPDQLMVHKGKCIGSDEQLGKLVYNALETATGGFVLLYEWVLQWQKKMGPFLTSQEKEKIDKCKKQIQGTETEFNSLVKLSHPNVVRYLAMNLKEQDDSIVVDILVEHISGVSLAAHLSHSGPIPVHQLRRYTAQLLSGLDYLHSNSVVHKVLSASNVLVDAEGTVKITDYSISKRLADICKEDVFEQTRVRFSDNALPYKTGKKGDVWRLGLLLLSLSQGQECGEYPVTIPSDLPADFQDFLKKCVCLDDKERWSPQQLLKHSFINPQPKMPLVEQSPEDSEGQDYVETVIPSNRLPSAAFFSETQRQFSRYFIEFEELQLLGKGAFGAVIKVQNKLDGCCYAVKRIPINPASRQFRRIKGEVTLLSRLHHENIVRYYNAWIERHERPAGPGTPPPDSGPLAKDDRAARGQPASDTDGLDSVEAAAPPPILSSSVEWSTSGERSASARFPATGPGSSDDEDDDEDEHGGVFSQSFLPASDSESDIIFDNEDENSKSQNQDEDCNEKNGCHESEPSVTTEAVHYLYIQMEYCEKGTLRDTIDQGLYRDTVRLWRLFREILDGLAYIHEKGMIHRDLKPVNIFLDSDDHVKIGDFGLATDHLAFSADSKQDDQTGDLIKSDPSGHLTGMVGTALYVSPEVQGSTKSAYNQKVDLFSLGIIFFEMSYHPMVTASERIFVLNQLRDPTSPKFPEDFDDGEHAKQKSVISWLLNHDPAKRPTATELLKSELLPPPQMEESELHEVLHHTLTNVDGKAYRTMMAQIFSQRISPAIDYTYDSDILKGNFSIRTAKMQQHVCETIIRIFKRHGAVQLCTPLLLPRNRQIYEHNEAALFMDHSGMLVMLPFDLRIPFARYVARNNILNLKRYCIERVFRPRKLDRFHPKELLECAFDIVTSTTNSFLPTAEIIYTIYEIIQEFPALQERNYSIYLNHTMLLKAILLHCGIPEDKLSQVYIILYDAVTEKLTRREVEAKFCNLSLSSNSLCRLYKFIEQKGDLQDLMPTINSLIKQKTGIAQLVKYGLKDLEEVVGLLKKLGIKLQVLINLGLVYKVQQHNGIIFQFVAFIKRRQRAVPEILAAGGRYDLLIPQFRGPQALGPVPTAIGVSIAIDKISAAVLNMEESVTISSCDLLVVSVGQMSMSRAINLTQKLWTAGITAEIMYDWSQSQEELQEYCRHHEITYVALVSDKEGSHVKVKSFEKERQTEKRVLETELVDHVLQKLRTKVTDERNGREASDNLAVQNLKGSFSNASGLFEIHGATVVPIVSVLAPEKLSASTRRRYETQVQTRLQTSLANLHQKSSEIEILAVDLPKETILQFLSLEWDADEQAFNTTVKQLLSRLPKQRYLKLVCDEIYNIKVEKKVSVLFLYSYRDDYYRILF

As for `COc1cc(N2CCC(C(N)=O)CC2)ccc1Nc1nc(N)c(Cl)c(Nc2ccccc2S(=O)(=O)C(C)C)n1`, the kinase still bound, per cent of control is 100% in [1]; 2.9% in experiment [2]; 100% in experiment [3]; 100% in experiment [4]; 100% in [5]; 13% in experiment [6]. Also, the kinase still bound, per cent of control worked out at 0% in experiment [7]; 21% in experiment [8]; 100% in experiment [9]; 0.3% in [10]; 100% in experiment [11]; 100% in [12]. The kinase still bound, per cent of control in experiment [13] is 100%; in [14], 20%; in experiment [15], 100%; in experiment [16], 24%.

Turning to `CNC(=O)c1ccc(Nc2cc(Nc3ccccc3S(=O)(=O)C(C)C)c3cc[nH]c3n2)nc1`, the kinase still bound, per cent of control in experiment [1] came to 7.9%; in experiment [2], 100%; in [3], 100%; in experiment [4], 22%; in [5] it was 11%; in experiment [6] it was 0.35%. In addition, the kinase still bound, per cent of control came out at 100% in experiment [7]; 100% in experiment [8]; 18% in experiment [9]; 100% in experiment [10]; 20% in [11]; 0% in experiment [12]. Further, the kinase still bound, per cent of control in experiment [13] amounted to 4.7%; in experiment [14] it was 0.25%; in [15] it was 2.6%; in experiment [16] it was 4.5%.

`Cc1cn(-c2cc(C(=O)Nc3ccc(C)c(NC(=O)c4ccno4)c3)cc(C(F)(F)F)c2)cn1`: the kinase still bound, per cent of control in experiment [1] came to 11%; in experiment [2] it was 100%; in experiment [3], 100%; in experiment [4], 100%; in [17], 100%; in experiment [5], 13%. The kinase still bound, per cent of control stood at 100% in experiment [6]; 100% in experiment [18]; 100% in [7]; 100% in experiment [19]; 100% in experiment [8]; 0.15% in experiment [9]. Moreover, the kinase still bound, per cent of control in experiment [10] was 100%; in experiment [11] it was 18%; in experiment [12] it was 100%; in [20] it was 100%; in experiment [13] it was 100%; in experiment [14], 100%. In addition, the kinase still bound, per cent of control was 100% in experiment [15] and 27% in experiment [16].

For the compound `C=CC(=O)Nc1ccc(CN(C(=O)Nc2c(Cl)c(OC)cc(OC)c2Cl)c2cc(Nc3ccc(N4CCN(C)CC4)cc3)ncn2)cc1`, the kinase still bound, per cent of control was determined as 16% in experiment [1]; 0.45% in [2]; 1.5% in experiment [3]; 29% in experiment [4]; 14% in [5]; 8.4% in experiment [6]. Also, the kinase still bound, per cent of control stood at 0.6% in experiment [7]; 0.15% in experiment [8]; 0.1% in experiment [9]; 0.1% in experiment [10]; 100% in experiment [11]; 6.4% in experiment [12]. Further, the kinase still bound, per cent of control in experiment [13] amounted to 100%; in experiment [14] it was 100%; in experiment [15] it was 21%; in experiment [16] it was 7.2%.

As to `COc1cc(N2CCN(C)CC2)ccc1Nc1ncc2c(n1)N(C)c1ccccc1C(=O)N2C`, the kinase still bound, per cent of control in experiment [1], in experiment [2], in experiment [3], in experiment [4], in experiment [17] and in experiment [5] was 100% in each case. Moreover, the kinase still bound, per cent of control in experiment [6], in experiment [18], in experiment [7], in experiment [19], in experiment [8] and in [9] was 100% throughout. Besides, the kinase still bound, per cent of control in experiment [10], in experiment [11], in experiment [12], in [20], in [13] and in [14] was 100% each time. Moreover, the kinase still bound, per cent of control in experiment [15] and in [16] was 100% each time.

For `CCOc1cc(N2CCC(O)CC2)ccc1Nc1ncc2c(n1)N(C)c1ccccc1C(=O)N2C`, the kinase still bound, per cent of control in experiment [1], in experiment [2], in experiment [3], in [4], in [17] and in experiment [5] was 100% in each case. Also, the kinase still bound, per cent of control in experiment [6], in [18], in experiment [7], in experiment [19], in [8] and in [9] was 100% each time. The kinase still bound, per cent of control in experiment [10], in experiment [11], in experiment [12], in experiment [20], in experiment [13] and in experiment [14] was 100% each time. Also, the kinase still bound, per cent of control in experiment [15] and in experiment [16] was 100% throughout.

Consider `CS(=O)(=O)N1CCN(Cc2cc3nc(-c4cccc5[nH]ncc45)nc(N4CCOCC4)c3s2)CC1`, for which the kinase still bound, per cent of control in experiment [1], in [2], in [3], in experiment [4], in experiment [5] and in experiment [6] was 100% in each case. The kinase still bound, per cent of control in experiment [18] was determined as 14%; in [7], 100%; in [19] it was 0.35%; in experiment [8], 100%; in experiment [9] it was 100%; in [10], 100%. The kinase still bound, per cent of control in experiment [11] is 100%; in experiment [12], 100%; in [20], 0.35%; in experiment [13], 0.3%; in experiment [14], 100%; in [15], 100%. The kinase still bound, per cent of control in [16] was found to be 100%.
